Our source for the IC50 values is US20240360151A1 (SANOFI, priority 2023, published 2024).

Where a name gives a salt, the structure may show the parent alone.

For the experiment, the target named is T1, NLRP3 inflammasome (Homo sapiens, UniProt Q96P20).
T1 construct: endogenous in cells; host or cells: THP-1 monocytic cells
T1 sequence (Q96P20 whole entry): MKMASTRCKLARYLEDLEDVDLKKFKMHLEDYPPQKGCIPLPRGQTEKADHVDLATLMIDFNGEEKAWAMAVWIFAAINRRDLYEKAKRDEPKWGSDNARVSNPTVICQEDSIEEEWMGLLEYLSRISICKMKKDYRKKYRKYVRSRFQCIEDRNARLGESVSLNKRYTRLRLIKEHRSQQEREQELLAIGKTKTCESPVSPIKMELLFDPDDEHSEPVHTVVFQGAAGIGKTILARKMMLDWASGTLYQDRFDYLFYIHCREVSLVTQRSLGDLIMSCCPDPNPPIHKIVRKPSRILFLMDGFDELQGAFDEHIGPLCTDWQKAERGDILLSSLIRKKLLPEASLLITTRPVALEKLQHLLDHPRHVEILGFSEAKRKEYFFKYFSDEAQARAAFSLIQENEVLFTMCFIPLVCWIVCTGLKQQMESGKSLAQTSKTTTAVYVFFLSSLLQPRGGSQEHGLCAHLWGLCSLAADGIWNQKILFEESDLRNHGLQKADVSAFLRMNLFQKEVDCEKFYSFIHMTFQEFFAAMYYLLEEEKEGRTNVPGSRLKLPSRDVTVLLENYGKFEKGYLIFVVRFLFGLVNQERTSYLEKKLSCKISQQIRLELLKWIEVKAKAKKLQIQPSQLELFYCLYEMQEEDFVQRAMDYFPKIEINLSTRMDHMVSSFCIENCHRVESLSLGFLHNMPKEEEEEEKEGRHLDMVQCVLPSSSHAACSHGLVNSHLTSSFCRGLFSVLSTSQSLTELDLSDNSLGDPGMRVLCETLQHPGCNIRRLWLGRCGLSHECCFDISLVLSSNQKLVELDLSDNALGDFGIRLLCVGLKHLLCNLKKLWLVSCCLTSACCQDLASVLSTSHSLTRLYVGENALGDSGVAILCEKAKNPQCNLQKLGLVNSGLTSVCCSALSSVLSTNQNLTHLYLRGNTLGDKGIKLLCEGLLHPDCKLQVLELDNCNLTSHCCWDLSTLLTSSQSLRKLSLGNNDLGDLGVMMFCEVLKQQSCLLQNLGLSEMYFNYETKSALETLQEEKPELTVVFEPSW
The experiment in a line: IL-1β secretion assay (NLRP3 IC50) in LPS-primed, nigericin-activated THP-1 cells, HTRF. In kind it is cell-based. The conditions noted are these: monocytic THP-1 cells; LPS 10 ng/mL 3 h priming, then compound + nigericin 10 μM 2 h; relative IC50, 10 concentrations, geometric mean. As to the method:
Monocytic THP-1 cells were maintained in RPMI 1640 media (Gibco 21875)+10% FBS, (Gibco 10500)+1% penicillin/streptomycin (Gibco 15140-122). Cells were then plated at 40,000 cells per well in 384-well cell culture plates (CoRNning 3542) and maintained with RPMI1640 (Gibco 11835)+5% FBS (Gibco 10500). Activation of the NLRP3 inflammasome requires both an NF-kB-dependent priming step and the addition of a NLRP3 activator. The priming step was induced by LPS (10 ng/mL, InvivoGen ref tlrl-3pelps) for 3 h at 37° C., then compound, in a 1:3 serial dilution series in DMSO (final concentration DMSO 0.1%), and the activator nigericin (Sigma Aldrich, ref: SML1779) 10 μM (final concentration) were added to the cells and co-incubated for 2 hours. 16 μL supernatant was removed, and IL-1β levels were monitored using an HTRF assay (Human IL1b Kits HTRF Cisbio ref: 62HILBPEH) according to manufacturers' instructions.
Data were expressed as percentage of inhibition (I %) as compared to a maximum signal control containing no small molecule (I %=0%) according to the formula: 1%=(1−((Sample−Min))/((Max−Min)))×100, where: • Sample: Signal obtained in the presence of each compound tested, • Max: Maximum signal in the absence of compound added, • Min: Minimum or background signal obtained in the absence of activation signal.
Relative IC50 (IC50 rel) were obtained from a dose response curve with 10 concentrations. Final IC50 rels are expressed as the geometric mean.
Relative IC50 values were estimated with Biost@t-SPEED v2.4 internal software based on SAS system using the 4-parameter logistic model according to Ratkovsky and Reedy (D. A. Ratkovsky, T. J. Reedy, Choosing near-linear parameters in the four parameters logistic model radioligands and related assays. Biometrics, 42 (1986), 575-582): Y=A+C/((1+exp(−B*(log(X)−M)))), where: • A: Lower asymptote (BOTTOM), • A+C: Upper asymptote (TOP), • M: the logarithm of the concentration estimated at the inflexion point (the logarithm of the relative IC50), • B: Slope at the inflexion point of the curve.
Background: Time-resolved FRET reads energy transfer from a long-lived donor to a nearby acceptor.
Turning to `Cc1cc(C)c(-c2ccc(N3C[C@@H](O)CO3)nn2)c(O)c1` [Example 113, (4R)-2-[6-(2-hydroxy-4,6-dimethyl-phenyl)pyridazin-3-yl]isoxazolidin-4-ol], the IC50 stood at 857 nM.
With `Cc1cc(Cl)cc(O)c1-c1ccc(N2CCO[C@@H]3CCN(CCF)C[C@@H]32)nn1` [Example 522, 2-[6-[(4aS,8aR)-6-(2-fluoroethyl)-3,4a,5,7,8,8a-hexahydro-2H-pyrido[4,3-b][1,4]oxazin-4-yl]pyridazin-3-yl]-5-chloro-3-methyl-phenol] the figure was 21 nM; with `Cc1cc(C)c(-c2ccc(N3CC4(CO)CCCC3C4)nn2)c(O)c1` (stereo not shown) [Example 114, 2-[6-[1-(hydroxymethyl)-6-azabicyclo[3.2.1]octan-6-yl]pyridazin-3-yl]-3,5-dimethyl-phenol], 958 nM.
With `Cc1cc(C)c(-c2ccc(N3CCOC([C@H](C)O)C3)nn2)c(O)c1` (single isomer, unassigned) [Example 98] the figure was 298 nM; with `Cc1cc(C)c(-c2ccc(N3CC4(CC[C@@H](O)C4)C3)nn2)c(O)c1` (stereo in doubt) [Example 94, 2-[6-(2-hydroxy-4,6-dimethyl-phenyl)pyridazin-3-yl]-2-azaspiro[3.4]octan-6-ol], 1920 nM; with `CCc1cccc(O)c1-c1cc(C)c(N2CCO[C@@H]3CCN(C)C[C@@H]32)nn1` [Example 439, 2-[6-[(4aS,8aR)-6-methyl-3,4a,5,7,8,8a-hexahydro-2H-pyrido[4,3-b][1,4]oxazin-4-yl]-5-methyl-pyridazin-3-yl]-3-ethyl-phenol], 569 nM.
To `CC(=O)N1C[C@@H]2[C@@H](C1)OCCN2c1ccc(-c2c(C)cc(C(F)(F)F)cc2O)nn1` (racemic) [Example 337, 1-[rac-(4aR,7aR)-4-[6-[2-hydroxy-6-methyl-4-(trifluoromethyl)phenyl]pyridazin-3-yl]-2,3,4a,5,7,7a-hexahydropyrrolo[3,4-b][1,4]oxazin-6-yl]ethanone] belongs 2880 nM; to `CC(=O)N1CC[C@H]2CCN(c3ccc(-c4c(C)cc(C)cc4O)nn3)[C@H]2C1` (racemic) [Example 394, 1-[rac-(3aR,7aR)-1-[6-(2-hydroxy-4,6-dimethyl-phenyl)pyridazin-3-yl]-3,3a,4,5,7,7a-hexahydro-2H-pyrrolo[2,3-c]pyridin-6-yl]ethanone], 310 nM; to `CN1CC[C@H]2OCCN(c3cc(C(F)F)c(-c4cccc(F)c4O)nn3)[C@H]2C1` [Example 351, 2-[6-[(4aS,8aR)-6-methyl-3,4a,5,7,8,8a-hexahydro-2H-pyrido[4,3-b][1,4]oxazin-4-yl]-4-(difluoromethyl)pyridazin-3-yl]-6-fluoro-phenol], 167 nM.
Regarding `CNC(=O)[C@@H]1CN(c2ccc(-c3c(C)cc(C)cc3O)nn2)CCO1` [Example 166, (2S)-4-[6-(2-hydroxy-4,6-dimethylphenyl)pyridazin-3-yl]-N-methylmorpholine-2-carboxamide], the IC50 turned out to be 3310 nM.
To `CCc1cccc(O)c1-c1ccc(N2CCO[C@@H]3CCN(C(C)=O)C[C@@H]32)nn1` [Example 424, 1-[(4aS,8aR)-4-[6-(2-ethyl-6-hydroxy-phenyl)pyridazin-3-yl]-3,4a,5,7,8,8a-hexahydro-2H-pyrido[4,3-b][1,4]oxazin-6-yl]ethanone] belongs 396 nM.
With `Cc1cc(N2CCO[C@@H]3CCN(C)C[C@@H]32)nnc1-c1ccc2c(c1O)CCC2` [Example 471, 5-[6-[(4aS,8aR)-6-methyl-3,4a,5,7,8,8a-hexahydro-2H-pyrido[4,3-b][1,4]oxazin-4-yl]-4-methyl-pyridazin-3-yl]indan-4-ol] the figure was 1 nM; with `CCc1cc(C)cc(O)c1-c1ccc(N2CC[C@@H]3CCN(C)C[C@@H]32)nn1` (racemic) [Example 459, 3-ethyl-5-methyl-2-[6-[rac-(3aS,7aR)-6-methyl-3,3a,4,5,7,7a-hexahydro-2H-pyrrolo[2,3-c]pyridin-1-yl]pyridazin-3-yl]phenol], 1 nM; with `Cc1cc(C(F)(F)F)cc(O)c1-c1ccc(N2CCO[C@H](CO)C2=O)nn1` (stereo in doubt) [Example 368, 2-(hydroxymethyl)-4-[6-[2-hydroxy-6-methyl-4-(trifluoromethyl)phenyl]pyridazin-3-yl]morpholin-3-one], 188 nM.
With `Cc1cc(C(F)(F)F)cc(O)c1-c1ccc(N2CCO[C@@H]3CNC[C@H]32)nn1` (racemic) [Example 318, 3-methyl-2-[6-[rac-(4aR,7aR)-3,4a,5,6,7,7a-hexahydro-2H-pyrrolo[3,4-b][1,4]oxazin-4-yl]pyridazin-3-yl]-5-(trifluoromethyl)phenol; hydrochloride] the figure was 883 nM; with `Cc1cc(C)c(-c2cc(C(F)F)c(N3CC[C@H]4CCN(C)C[C@H]43)nn2)c(O)c1` (single isomer, unassigned) [Example 487], 1 nM; with `Cc1cc(C(F)(F)F)cc(O)c1-c1ccc(N2CCC[C@@H](CO)C2=O)nn1` (single isomer, unassigned) [Example 288], 143 nM.
As to `Cc1cc(C)c(-c2ccc(N3CCC(C#N)CC3)nn2)c(O)c1` [Example 2, 1-[6-(2-hydroxy-4,6-dimethyl-phenyl)pyridazin-3-yl]piperidine-4-carbonitrile], the IC50 stood at 1960 nM.
To `CNC(=O)[C@H]1CN(c2ccc(-c3c(C)cc(C)cc3O)nn2)CCO1` [Example 182, (2R)-4-[6-(2-hydroxy-4,6-dimethylphenyl)pyridazin-3-yl]-N-methylmorpholine-2-carboxamide] belongs 1650 nM; to `Cc1cc(N2CCO[C@H](CO)C2)nnc1-c1ccc(F)cc1O` [Example 93, 5-fluoro-2-[6-[(2S)-2-(hydroxymethyl)morpholin-4-yl]-4-methyl-pyridazin-3-yl]phenol], 879 nM.
For `CCN[C@H]1CCCN(c2ccc(-c3c(C)cc(C)cc3O)nn2)C1` [Example 68, 2-[6-[(3S)-3-(ethylamino)-1-piperidyl]pyridazin-3-yl]-3,5-dimethyl-phenol], the IC50 stood at 1220 nM.
To `Cc1cc(C)c(-c2ccc(N3CC[C@H]3CO)nn2)c(O)c1` [Example 115, 2-[6-[(2S)-2-(hydroxymethyl)azetidin-1-yl]pyridazin-3-yl]-3,5-dimethyl-phenol] belongs 1540 nM; to `CCN1CC[C@H]2CCN(c3cc(C)c(-c4ccc(C)cc4O)nn3)[C@H]2C1` (racemic) [Example 460, 2-[6-[rac-(3aS,7aR)-6-ethyl-3,3a,4,5,7,7a-hexahydro-2H-pyrrolo[2,3-c]pyridin-1-yl]-4-methyl-pyridazin-3-yl]-5-methyl-phenol], under 0.3 nM; to `Cc1cc(C)c(-c2ccc(N3CCO[C@@H]4CCOC[C@@H]43)nn2)c(O)c1` (racemic) [Example 403, 3,5-dimethyl-2-[6-[rac-(4aS,8aR)-3,4a,5,7,8,8a-hexahydro-2H-pyrano[4,3-b][1,4]oxazin-4-yl]pyridazin-3-yl]phenol], 366 nM.
To `CN(C)C[C@@H]1CCCN(c2ccc(-c3c(O)cc(Cl)cc3Cl)nn2)C1` [Example 51, 3,5-dichloro-2-[6-[(3S)-3-[(dimethylamino)methyl]-1-piperidyl]pyridazin-3-yl]phenol] belongs 1050 nM; to `CC(=O)NC[C@H]1CN(c2ccc(-c3c(C)cc(C)cc3O)nn2)CCO1` [Example 105, N-[[(2S)-4-[6-(2-hydroxy-4,6-dimethyl-phenyl)pyridazin-3-yl]morpholin-2-yl]methyl]acetamide], 335 nM.
With `Cc1cc(C(F)(F)F)cc(O)c1-c1ccc(N2CCO[C@H]3CN(C)C[C@H]32)nn1` (single isomer, unassigned) [Example 333] the figure was 460 nM; with `Cc1cc(C)c(-c2ccc(N3CCO[C@H](CS)C3)nn2)c(O)c1` [Example 303, 3,5-dimethyl-2-[6-[(2S)-2-(sulfanylmethyl)morpholin-4-yl]pyridazin-3-yl]phenol], 3870 nM; with `Cc1cc(C)c(-c2ccc(N3C4CCC3COC4)nn2)c(O)c1` [Example 120, 3,5-dimethyl-2-[6-(3-oxa-8-azabicyclo[3.2.1]octan-8-yl)pyridazin-3-yl]phenol], 2520 nM.
On to `CCN1CC[C@@H]2CCN(c3cc(C)c(-c4ccc(C)cc4O)nn3)[C@@H]2C1` (single isomer, unassigned) [Example 474], for which the IC50 was under 0.3 nM.
With `Cc1ccc(-c2nnc(N3CC[C@H]4CCN(C)C[C@H]43)cc2C(F)F)c(O)c1` (single isomer, unassigned) [Example 507] the figure was 1 nM.

Usually IC50 stands for the concentration that inhibits the measured activity by half.
